From patent publication US10383873B2, “Method and kits for identifying of CDK9 inhibitors for the treatment of cancer” (Memorial Sloan-Kettering Cancer Center, priority 2014, dated 2019)

What was measured:
human HCC cell lines [1] = assay: Cell cycle analysis (BrdU/7-AAD staining) after 48 hours of treatment; format: cell-based; details: PHA-767491 treatment
Procedure: (FIG. 3E) Representative flow cytometry plots showing cell cycle analysis (BrdU+7-AAD+ double staining) of cells after 48 hours of PHA-767491 treatment.

[2] = tested on: non-transformed cell lines; assay: Proliferation assay in non-transformed cell lines; format: cell-based; details: two non-transformed cell lines, compared with cancer cell lines
Procedure: Dead cells were excluded using propidium iodide (PI) staining to score cells with sub-2N DNA content. Measurements of cell concentration were performed on a Guava Easycyte (Millipore), gating only viable cells (FSC/SSC/PI-). Proliferation rates were calculated by dividing cell concentration at 72 h and cell concentration at 0 h, divided by 72. Relative proliferation rates were calculated by normalizing to the rate of vehicle-treated cells. Population doublings were calculated by calculating log 2 (cells at end point/cells at initial point) divided by time in days.

[3] = tested on: human and murine cell lines; assay: Comparison of inhibitor IC50 with anti-proliferative effects of CDK9 shRNAs; format: cell-based; details: IC50 compared with competitive proliferation assays
Description: (FIG. 3A) Scatter plot illustrating the correlation between anti-proliferative effects of CDK9 shRNAs and the IC50 of PHA-767491 in six human cell lines. The correlation and p values of three additional CDK9 inhibitors and one DNA replication inhibitor (aphidicolin) are also shown in the right panel. The survival is defined as the average of the survival ratio of two shRNAs in competitive proliferation assay. (FIG. 3B) Proliferation rates of PHA-767491-treated human cells, calculated by measuring the change in viable cell number after 72 h in culture and fitting data to an exponential growth curve. Results were normalized to the proliferation rate of vehicle (H2O) treated cells, set to 1. Values are mean+/−SD of three independent replicates. (FIG. 3C) Summary of PHA-767491 IC50 values of human cell lines in FIG. 3A. […]
Competitive proliferation assays using shRNAs in TRMPV-Neo vector (with miR-30 or miR-E backbone) were performed as described previously (Zuber J, et al. Nature (2011) 478: 524-528). […] Proliferation rates were calculated by dividing cell concentration at 72 h and cell concentration at 0 h, divided by 72. Relative proliferation rates were calculated by normalizing to the rate of vehicle-treated cells. Population doublings were calculated by calculating log 2 (cells at end point/cells at initial point) divided by time in days. […]

[4] = tested on: MYC-overexpressing Alexander cells; assay: Proliferation assay in Alexander cells with enforced MYC expression; format: cell-based, human; details: ectopic MYC expression versus empty vector
SNU-475 cells = assay: Proliferation assay in SNU-475 cells with enforced MYC expression; format: cell-based, human; details: MYC levels equivalent to HepG2
Ser2 of RNA pol II = assay: Immunoblot of Pol II Ser2 phosphorylation in tumors; format: in vivo, mice
Description: Mice were maintained under specific pathogen-free conditions, and food and water were provided ad libitum. […] One million murine or human HCC cells were ortothopically transplantated into female nude recipient mice (NCR nu/nu, purchased from Charles River laboratories and Harlan Laboratories), as described previously (Saborowski et al. 2013 Proc Natl Acad Sci USA. 2013 Nov. 26; 110(48):19513-8. doi: 10.1073/pnas.1311707110.). […] For PHA-767491 treatment trials, PHA-767491 was solved in ultrapure distilled water, filtered by 0.2 M filters, and diluted to a final concentration of 5 mg/ml. Mice were orally given twice daily PHA-767491 (50 mg/kg) or a similar volume of vehicle (water). The sick animals were sacrificed and liver tumors were used for further analysis. Liver tumors were excised, formalin-fixed and paraffin-embedded, frozen, or embedded in OCT.
Liver tissues and cell pellets were lysed in Laemmli buffer or protein lysis buffer (200 mM NaCl, 0.2% NP40, 50 mM Tris at pH 7.5, 1% Tween20, protease and phosphatases inhibitors) using a tissue homogenizer. Equal amounts of protein were separated on 12% SDS-polyacrylamide gels and transferred to PVDF membranes. […] Images were analyzed using the AlphaView software (ProteinSimple). Detection in immunoblots was performed using antibodies for CDK9 (Santa Cruz Biotechnology), MCM6 (Santa Cruz Biotechnology), PSMB2 (Santa Cruz Biotechnology), β-Actin (AC-15, Sigma), p53 (Leica Biosystems), MYC (Abcam), CCNT1 (Santa Cruz Biotechnology), phopho-Ser2 RNA Pol II (Cell Signaling), and RNA Pol II (Santa Cruz Biotechnology).

HepG2 cells = assay: Orthotopic HepG2 HCC xenograft, bioluminescent imaging and Ki67; format: in vivo, mice; details: high MYC expressing HepG2; 50 mg/kg twice a day
Procedure: (§1) All mouse experiments were approved by the Memorial Sloan-Kettering Cancer Center (MSKCC) Animal Care and Use Committee (protocol no. 11-06-011). Mice were maintained under specific pathogen-free conditions, and food and water were provided ad libitum. For conditional RNAi experiments in vivo, Tet-on murine HCC MP1 cells were transduced with luciferase-hygro and TRMPV-Neo-miR-E shRNA constructs. […] For whole-body bioluminescent imaging, mice were intraperitoneally injected with 50 mg/kg D-Luciferin (Goldbio), and after 10 min, analysed using an IVIS Spectrum system (Caliper LifeSciences). Quantification was performed using Living Image software (Caliper LifeSciences) with standardized round regions of interests covering the mouse trunk and extremities. […]
(§2) Liver tissues and cell pellets were lysed in Laemmli buffer or protein lysis buffer (200 mM NaCl, 0.2% NP40, 50 mM Tris at pH 7.5, 1% Tween20, protease and phosphatases inhibitors) using a tissue homogenizer. […] The abundance of β-actin was monitored to ensure equal loading. Images were analyzed using the AlphaView software (ProteinSimple). […]

Alexander cells = assay: Orthotopic Alexander HCC xenograft, bioluminescent imaging and Ki67; format: in vivo, mice; details: low MYC expressing Alexander; same treatment
Procedure: as §1, §2

human HCC cell lines [5] = details: previous findings; cited from earlier work
CDK9 = CDK9 (Homo sapiens, UniProt P50750); details: versus other available inhibitors
Sequence of CDK9 (P50750 whole entry, species assumed): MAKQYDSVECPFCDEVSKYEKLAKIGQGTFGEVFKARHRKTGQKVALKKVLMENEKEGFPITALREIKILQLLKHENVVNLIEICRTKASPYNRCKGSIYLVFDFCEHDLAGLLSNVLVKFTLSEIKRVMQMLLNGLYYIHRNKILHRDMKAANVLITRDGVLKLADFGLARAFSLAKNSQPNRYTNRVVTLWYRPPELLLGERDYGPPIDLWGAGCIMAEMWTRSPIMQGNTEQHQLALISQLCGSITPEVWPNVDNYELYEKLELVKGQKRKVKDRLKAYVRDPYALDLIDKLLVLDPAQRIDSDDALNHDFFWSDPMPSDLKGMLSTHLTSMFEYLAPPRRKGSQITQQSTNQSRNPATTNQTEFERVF
Sequence of CDK9 (O60563 whole entry partner, species assumed): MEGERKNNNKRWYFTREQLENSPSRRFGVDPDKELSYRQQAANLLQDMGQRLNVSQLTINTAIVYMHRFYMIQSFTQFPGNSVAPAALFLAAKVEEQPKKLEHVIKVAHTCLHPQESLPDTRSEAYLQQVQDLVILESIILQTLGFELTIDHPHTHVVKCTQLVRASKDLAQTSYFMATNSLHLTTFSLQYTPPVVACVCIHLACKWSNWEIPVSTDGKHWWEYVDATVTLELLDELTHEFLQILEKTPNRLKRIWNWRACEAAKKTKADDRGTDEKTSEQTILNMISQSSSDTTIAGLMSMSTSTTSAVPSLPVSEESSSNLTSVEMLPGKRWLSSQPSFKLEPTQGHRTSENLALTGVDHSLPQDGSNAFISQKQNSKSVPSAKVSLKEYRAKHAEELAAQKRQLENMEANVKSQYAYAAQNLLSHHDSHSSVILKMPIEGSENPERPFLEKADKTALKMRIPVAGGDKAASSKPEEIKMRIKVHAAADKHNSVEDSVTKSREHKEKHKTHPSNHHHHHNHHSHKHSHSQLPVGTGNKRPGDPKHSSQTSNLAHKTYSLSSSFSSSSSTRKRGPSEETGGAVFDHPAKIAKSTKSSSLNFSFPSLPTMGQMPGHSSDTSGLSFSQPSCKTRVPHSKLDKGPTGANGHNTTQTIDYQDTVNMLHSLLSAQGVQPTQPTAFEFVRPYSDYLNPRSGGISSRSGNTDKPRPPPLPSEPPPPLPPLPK

Compound	cell cycle effect (human HCC cell lines [1])	sensitivity to treatment [2]	similarity of activity spectrum to CDK9 shRNAs [3]	sensitivity to CDK9 inhibition [4]	sensitivity compared with HepG2 cells (SNU-475 cells)	Pol II Ser2 phosphorylation in tumors (Ser2 of RNA pol II; human HCC xenografts, 50 mg/kg twice a day, 50 mg/kg)	Pol II Ser2 phosphorylation in Alexander tumors (Ser2 of RNA pol II; low MYC expressing Alexander xenografts)	total RNA pol II levels in tumors (Ser2 of RNA pol II; two representative tumors)	tumor growth (HepG2 cells)	tumor-cell proliferation (HepG2 cells)	effect on tumor-cell proliferation and tumor growth (Alexander cells)	p53 dependence of proliferation inhibition (human HCC cell lines [5])	selectivity for CDK9 (CDK9)
O=C1NCCc2[nH]c(-c3ccncc3)cc21 [PHA-767491]	triggered cell-cycle arrest	consistently less sensitive	most closely recapitulated shRNA-mediated CDK9 inhibition	became more sensitive	produced a similar sensitivity	decrease in the levels of phosphorylation of Ser2 of RNA pol II	detectable decrease in Pol II Ser2 phosphorylation	mild changes in total RNA pol II levels	substantial inhibition of tumor growth and some tumor regressions	decreased tumor-cell proliferation	little if any effect	inhibits cancer cell proliferation through p53-independent mechanisms	more selective for CDK9 than other available inhibitors
C[C@@]1(CO)[C@H](O)CC[C@@]2(C)[C@H]1CC[C@H]1C[C@@H]3C[C@@]12CC[C@]3(O)CO [aphidicolin]			did not mimic the effects of CDK9 shRNAs										
